Converted amounts (≈) assume the structure as drawn.
Legend:
Type in all cases: functional
Staphylococcus aureus [1] = assay: Antibacterial activity against methicillin-sensitive Staphylococcus aureus 14-1
Enterococcus faecalis [2] = assay: Antibacterial activity against Enterococcus faecalis 14-3
[3] = tested on: Staphylococcus epidermidis; assay: Antibacterial activity against methicillin-sensitive Staphylococcus epidermidis 14-1
Escherichia coli [4] = assay: Antibacterial activity against Escherichia coli 14-1
Staphylococcus aureus [5] = assay: Antibacterial activity against methicillin-sensitive Staphylococcus aureus 14-2
Staphylococcus aureus [6] = assay: Antibacterial activity against methicillin-resistant Staphylococcus aureus 14-1
Staphylococcus aureus [7] = assay: Antibacterial activity against methicillin-resistant Staphylococcus aureus 14-4
[8] = tested on: Staphylococcus epidermidis; assay: Antibacterial activity against methicillin-resistant Staphylococcus epidermidis 14-1
Staphylococcus aureus [9] = assay: Antibacterial activity against methicillin-resistant Staphylococcus aureus 14-5
Enterococcus faecalis [10] = assay: Antibacterial activity against Enterococcus faecalis 14-1
Escherichia coli [11] = assay: Antibacterial activity against Escherichia coli 14-2 expressing extended-spectrum beta-lactamase
[12] = tested on: Staphylococcus epidermidis; assay: Antibacterial activity against methicillin-resistant Staphylococcus epidermidis 14-4
Enterococcus faecalis [13] = assay: Antibacterial activity against Enterococcus faecalis 14-5
[14] = tested on: Staphylococcus epidermidis; assay: Antibacterial activity against methicillin-sensitive Staphylococcus epidermidis 14-3
Staphylococcus aureus [15] = assay: Antibacterial activity against methicillin-resistant Staphylococcus aureus 14-2
Escherichia coli [16] = assay: Antibacterial activity against Escherichia coli 14-1 expressing extended-spectrum beta-lactamase
Escherichia coli [17] = assay: Antibacterial activity against Escherichia coli 14-2
[18] = tested on: Staphylococcus epidermidis; assay: Antibacterial activity against methicillin-sensitive Staphylococcus epidermidis 14-2
[19] = tested on: Staphylococcus epidermidis; assay: Antibacterial activity against methicillin-resistant Staphylococcus epidermidis 14-2
[20] = tested on: Staphylococcus epidermidis; assay: Antibacterial activity against methicillin-resistant Staphylococcus epidermidis 14-3
Staphylococcus aureus [21] = assay: Antibacterial activity against methicillin-sensitive Staphylococcus aureus 14-3
Enterococcus faecalis [22] = assay: Antibacterial activity against Enterococcus faecalis 14-2
Staphylococcus aureus [23] = assay: Antibacterial activity against methicillin-sensitive Staphylococcus aureus 14-4

Structure (SMILES) | MIC (Staphylococcus aureus [1]) [µg/mL] | MIC (Enterococcus faecalis [2]) [µg/mL] | MIC [3] [µg/mL] | MIC (Escherichia coli [4]) [µg/mL] | MIC (Staphylococcus aureus [5]) [µg/mL] | MIC (Staphylococcus aureus [6]) [µg/mL] | MIC (Staphylococcus aureus [7]) [µg/mL] | MIC [8] [µg/mL] | MIC (Staphylococcus aureus [9]) [µg/mL] | MIC (Enterococcus faecalis [10]) [µg/mL] | MIC (Escherichia coli [11]) [µg/mL] | MIC [12] [µg/mL] | MIC (Enterococcus faecalis [13]) [µg/mL] | MIC [14] [µg/mL] | MIC (Staphylococcus aureus [15]) [µg/mL] | MIC (Escherichia coli [16]) [µg/mL] | MIC (Escherichia coli [17]) [µg/mL] | MIC [18] [µg/mL] | MIC [19] [µg/mL] | MIC [20] [µg/mL] | further results
CCCC[C@H](CN(O)C=O)C(=O)N1CC2(CC2)C[C@H]1C(=O)Nc1cccc(Nc2ncccn2)c1 | 0.25 (≈ 0.52 µM) | 1 (≈ 2.08 µM) | 0.125 (≈ 0.26 µM) | 128 (≈ 266 µM) | 0.25 (≈ 0.52 µM) | 0.25 (≈ 0.52 µM) | 0.25 (≈ 0.52 µM) | 0.125 (≈ 0.26 µM) | 0.125 (≈ 0.26 µM) | 0.5 (≈ 1.04 µM) | 64 (≈ 133 µM) | 0.25 (≈ 0.52 µM) | 1 (≈ 2.08 µM) | 0.125 (≈ 0.26 µM) | 0.25 (≈ 0.52 µM) | 1 (≈ 2.08 µM) | 128 (≈ 266 µM) | 0.25 (≈ 0.52 µM) | 0.25 (≈ 0.52 µM) | 0.06 (≈ 0.125 µM) | MIC (Staphylococcus aureus [21]): 0.25 µg/mL (≈ 0.52 µM); MIC (Enterococcus faecalis [22]): 1 µg/mL (≈ 2.08 µM); MIC (Staphylococcus aureus [23]): 0.125 µg/mL (≈ 0.26 µM)
CCCC[C@H](CN(O)C=O)C(=O)N1CC2(CC2)C[C@H]1c1nnc(-c2ccccn2)o1 | 4 (≈ 9.67 µM) | 8 (≈ 19.3 µM) | 1 (≈ 2.42 µM) | 128 (≈ 310 µM) | 2 (≈ 4.84 µM) | 4 (≈ 9.67 µM) | 4 (≈ 9.67 µM) | 1 (≈ 2.42 µM) | 2 (≈ 4.84 µM) | 4 (≈ 9.67 µM) | 64 (≈ 155 µM) | 4 (≈ 9.67 µM) | 8 (≈ 19.3 µM) | 0.5 (≈ 1.21 µM) | 4 (≈ 9.67 µM) | 0.5 (≈ 1.21 µM) | 64 (≈ 155 µM) | 1 (≈ 2.42 µM) | 0.5 (≈ 1.21 µM) | 0.5 (≈ 1.21 µM) | MIC (Staphylococcus aureus [21]): 2 µg/mL (≈ 4.84 µM); MIC (Enterococcus faecalis [22]): 8 µg/mL (≈ 19.3 µM); MIC (Staphylococcus aureus [23]): 2 µg/mL (≈ 4.84 µM)
CCCC[C@H](CN(O)C=O)C(=O)N1CC2(CC2)C[C@H]1C(=O)Nc1cc[nH]n1 | 16 (≈ 42.4 µM) | 64 (≈ 170 µM) | 4 (≈ 10.6 µM) | > 128 | 16 (≈ 42.4 µM) | 16 (≈ 42.4 µM) | 16 (≈ 42.4 µM) | 8 (≈ 21.2 µM) | 8 (≈ 21.2 µM) | 64 (≈ 170 µM) | 128 (≈ 339 µM) | 8 (≈ 21.2 µM) | > 128 | 4 (≈ 10.6 µM) | 32 (≈ 84.8 µM) | 16 (≈ 42.4 µM) | > 128 | 16 (≈ 42.4 µM) | 8 (≈ 21.2 µM) | 4 (≈ 10.6 µM) | MIC (Staphylococcus aureus [21]): 16 µg/mL (≈ 42.4 µM); MIC (Enterococcus faecalis [22]): 64 µg/mL (≈ 170 µM); MIC (Staphylococcus aureus [23]): 16 µg/mL (≈ 42.4 µM)

From ChEMBL document CHEMBL3822420, “New peptide deformylase inhibitors design, synthesis and pharmacokinetic assessment” (Bioorg Med Chem Lett, 2016)
